Measurements reported in patent EP0341019A2, “Polyether antibiotic” (priority 1988, dated 1989).
≈ marks a conversion by molar mass, not a printed value.

Key:
[1] = system: Staphylococcus aureus X1.1; format: cell-based; details: X1.1, 24 h
[2] = system: Staphylococcus epidermidis 270; format: cell-based; details: Staphylococcus epidermidis, 270, 24 h
[3] = system: Streptococcus pyogenes C203; format: cell-based; details: C203, 24 h
Escherichia coli N10 = format: cell-based; details: N10, 24 h
Klebsiella sp. = format: cell-based; details: 24 h
[4] = system: Clostridium difficile 2994; format: cell-based; details: Clostridioides difficile, 24-hour incubation
Source text: (§1) The formula 1 compounds (A82810 compounds) have antibacterial and anticoccidial activity. A82810 compounds are especially active against anaerobic bacteria. […]

[5] = system: Clostridium septicum 1128; format: cell-based; details: 24-hour incubation
Source text: as §1

Salmonella sp = format: cell-based; details: 24-hour incubation
Source text: as §1

Shigella sonnei = format: cell-based; details: 24-hour incubation
Source text: as §1

[6] = system: Pseudomonas aeruginosa X239; format: cell-based; details: X239, 24 h
[7] = system: Peptostreptococcus anaerobius 1451; format: cell-based; details: Peptostreptococcus anaerobius, 1451, 24 h
[8] = system: Bacteroides melaninogenicus 2736; format: cell-based; details: 2736, 24 h
[9] = system: Fusobacterium symbiosum 1470; format: cell-based; details: Fusobacterium, 1470, 24 h
Treponema hyodysenteriae = test: growth inhibition of swine dysentery agent; format: cell-based
Source text: In another aspect the A82810 compounds are useful in the treatments of swine dysentery. A82810 inhibits the growth of Treponema hyodysenteriae, a causative agent of swine dysentery, at levels as low as 1.56 mcg/mL. A preferred method of administration to swine is by incorporation of an appropriate amount of an A82810 compound into the feed ration or drinking water. An appropriate amount will relate to whether the treatment is to prevent or to cure infection. Usually, a lower concentration of active compound is needed to prevent infection than is required for to eliminate infection in animals already afflicted. In general, amounts in the range of from about 20 to about 100 grams of A82810 compound per ton of feed are effective to prevent infection. Amounts in the range of from about 100 to about 500 g of A82810 compound per ton of feed are recommended for treating swine suffering from dysentery. These amounts provide from about 1 to about 5 mg/kg of body weight per day (prophylactic treatment) or from about 5 to about 25 mg/kg of body weight per day (treatment of infected animal). When added to the drinking water, amounts of from about 0.04 to about 0.2 g (prophylactic) or from about 0.2 to about 1 g (therapeutic) of A82810 compound per gallon of water are recommended.

Friend leukemia virus = test: antiviral tissue-culture test; format: cell-based
adult stablefly = test: insecticide test
Source text: (§2) The A82810 compounds are also useful as insecticides. For example, A82810 is active against southern armyworm, spider mite and blowfly larvae at levels as low as 100 ppm and against adult stablefly at levels as low as 50 ppm.

blowfly larvae = test: insecticide test
Source text: as §2

southern armyworm = test: insecticide test
Source text: as §2

spider mite = test: insecticide test
Source text: as §2

[10] = system: Eimeria acervulina Strain 59 And E. tenella Strain 155; test: anticoccidial feed test in infected chickens, ionophore-sensitive strains; format: in vivo
[11] = system: Eimeria acervulina Strain FS-316 And E. tenella Strain FS-456; test: anticoccidial feed test in infected chickens, ionophore-resistant strains; format: in vivo
[12] = system: E. acervulina Strain FS-316; test: anticoccidial feed test in infected chickens, ionophore-resistant strain; format: in vivo
[13] = system: Eimeria maxima Strain FS-410; test: as above; format: in vivo

CC[C@@H](O)[C@]1(C)C[C@H](C)[C@@](O)([C@H]2C[C@H](C)[C@H]([C@]3(C)C[C@@H](O[C@H]4CC[C@H](OC)[C@@H](C)O4)[C@H]([C@]4(C)CC[C@@]5(O[C@H]([C@@H](C)[C@@H](OC)[C@H](C)C(=O)O)[C@H](C)[C@@H](OC)[C@H]5C)O4)O3)O2)O1 [Example A82810]
MIC [1]: 1 µg/mL (≈ 1.19 µM)
MIC [2]: 1 µg/mL (≈ 1.19 µM)
MIC [3]: 1 µg/mL (≈ 1.19 µM)
MIC (Escherichia coli N10): 1 µg/mL (≈ 1.19 µM)
MIC (Klebsiella sp.): > 128 µg/mL
MIC [4]: 0.5 µg/mL (≈ 0.593 µM)
MIC [5]: 0.5 µg/mL (≈ 0.593 µM)
MIC (Salmonella sp): > 128 µg/mL
MIC (Shigella sonnei): 2 µg/mL (≈ 2.37 µM)
MIC [6]: 0.25 µg/mL (≈ 0.297 µM)
MIC [7]: ≤ 0.25 µg/mL
MIC [8]: 8 µg/mL (≈ 9.49 µM)
MIC [9]: 0.5 µg/mL (≈ 0.593 µM)
inhibits the growth at levels as low as (Treponema hyodysenteriae): 1.56 µg/mL
active at levels as low as (Friend leukemia virus): 0.04 µg/mL
active at levels as low as (adult stablefly): 50 ppm
active at levels as low as (blowfly larvae): 100 ppm
active at levels as low as (southern armyworm): 100 ppm
active at levels as low as (spider mite): 100 ppm
TOTAL LESION SCORE ([10]; 0.5 ppm): 12.1
WEIGHT GAIN, PERCENT OF CONTROL ([10]; 0.5 ppm): 60% OF CONTROL
TOTAL LESION SCORE ([10]; 1 ppm): 10.7
WEIGHT GAIN, PERCENT OF CONTROL ([10]; 1 ppm): 81% OF CONTROL
AVERAGE CECAL LESION SCORES ([10]; 1.25 ppm): 3.2
AVERAGE INTESTINAL LESION SCORES ([10]; 1.25 ppm): 6.0
WEIGHT GAIN, PERCENT OF CONTROL ([10]; 1.25 ppm): 87% OF CONTROL
AVERAGE CECAL LESION SCORES ([10]; 1.5 ppm): 2.6
AVERAGE INTESTINAL LESION SCORES ([10]; 1.5 ppm): 3.6
AVERAGE CECAL LESION SCORES ([10]; 1.75 ppm): 2.0
AVERAGE INTESTINAL LESION SCORES ([10]; 1.75 ppm): 2.3
WEIGHT GAIN, PERCENT OF CONTROL ([10]; 1.75 ppm): 82% OF CONTROL
TOTAL LESION SCORE ([11]; 0.5 ppm): 8.7
WEIGHT GAIN, PERCENT OF CONTROL ([11]; 0.5 ppm): 87% OF CONTROL
TOTAL LESION SCORE ([11]; 1 ppm): 9.3
WEIGHT GAIN, PERCENT OF CONTROL ([11]; 1 ppm): 89% OF CONTROL
TOTAL LESION SCORE ([11]; 1.5 ppm): 7.7
WEIGHT GAIN, PERCENT OF CONTROL ([11]; 1.5 ppm): 95% OF CONTROL
TOTAL LESION SCORE ([11]; 2 ppm): 9.6
WEIGHT GAIN, PERCENT OF CONTROL ([11]; 2 ppm): 93% OF CONTROL
AVERAGE CECAL LESION SCORES ([11]; 2.5 ppm): 3.2
AVERAGE INTESTINAL LESION SCORES ([11]; 2.5 ppm): 2.3
WEIGHT GAIN, PERCENT OF CONTROL ([11]; 2.5 ppm): 81% OF CONTROL
AVERAGE CECAL LESION SCORES ([11]; 3 ppm): 2.9
AVERAGE INTESTINAL LESION SCORES ([11]; 3 ppm): 3.3
WEIGHT GAIN, PERCENT OF CONTROL ([11]; 3 ppm): 77% OF CONTROL
AVERAGE CECAL LESION SCORES ([11]; 3.5 ppm): 3.2
AVERAGE INTESTINAL LESION SCORES ([11]; 3.5 ppm): 3.0
WEIGHT GAIN, PERCENT OF CONTROL ([11]; 3.5 ppm): 85% OF CONTROL
AVERAGE CECAL LESION SCORES ([11]; 5 ppm): 2.3
AVERAGE INTESTINAL LESION SCORES ([11]; 5 ppm): 1.3
WEIGHT GAIN, PERCENT OF CONTROL ([11]; 5 ppm): 95% OF CONTROL
AVERAGE CECAL LESION SCORES ([11]; 6 ppm): 3.2
AVERAGE INTESTINAL LESION SCORES ([11]; 6 ppm): 1.7
WEIGHT GAIN, PERCENT OF CONTROL ([11]; 6 ppm): 98% OF CONTROL
AVERAGE INTESTINAL LESION SCORES ([12]; 0.5 ppm): 7.3
WEIGHT GAIN, PERCENT OF CONTROL ([12]; 0.5 ppm): 72% OF CONTROL
AVERAGE INTESTINAL LESION SCORES ([12]; 1 ppm): 7.8
WEIGHT GAIN, PERCENT OF CONTROL ([12]; 1 ppm): 73% OF CONTROL
AVERAGE INTESTINAL LESION SCORES ([12]; 1.5 ppm): 7.9
WEIGHT GAIN, PERCENT OF CONTROL ([12]; 1.5 ppm): 73% OF CONTROL
AVERAGE INTESTINAL LESION SCORES ([12]; 2 ppm): 8.8
WEIGHT GAIN, PERCENT OF CONTROL ([12]; 2 ppm): 76% OF CONTROL
AVERAGE INTESTINAL LESION SCORES ([13]; 1.25 ppm): 4.0
WEIGHT GAIN, PERCENT OF CONTROL ([13]; 1.25 ppm): 93% OF CONTROL
AVERAGE INTESTINAL LESION SCORES ([13]; 1.5 ppm): 3.3
INTESTINAL LESION SCORE ([13]; 1.5 ppm): 4.0
AVERAGE INTESTINAL LESION SCORES ([13]; 1.75 ppm): 3.8
WEIGHT GAIN, PERCENT OF CONTROL ([13]; 1.75 ppm): 91% OF CONTROL
INTESTINAL LESION SCORE ([13]; 2 ppm): 4.0
LESION SCORE ([13]; 2 ppm): 2.3
PERCENT REDUCTION IN OOCYST PRODUCTION ([13]; 2 ppm): 18%
AVERAGE INTESTINAL LESION SCORES ([13]; 2.5 ppm): 3.8
WEIGHT GAIN, PERCENT OF CONTROL ([13]; 2.5 ppm): 90% OF CONTROL
AVERAGE INTESTINAL LESION SCORES ([13]; 3 ppm): 3.1
WEIGHT GAIN, PERCENT OF CONTROL ([13]; 3 ppm): 88% OF CONTROL
AVERAGE INTESTINAL LESION SCORES ([13]; 3.5 ppm): 3.5
WEIGHT GAIN, PERCENT OF CONTROL ([13]; 3.5 ppm): 88% OF CONTROL
AVERAGE INTESTINAL LESION SCORES ([13]; 5 ppm): 4.0
WEIGHT GAIN, PERCENT OF CONTROL ([13]; 5 ppm): 74% OF CONTROL
AVERAGE INTESTINAL LESION SCORES ([13]; 6 ppm): 4.0
LESION SCORE ([13]; 6 ppm): 2.7
PERCENT REDUCTION IN OOCYST PRODUCTION ([13]; 6 ppm): 18%
LESION SCORE ([13]; 10 ppm): 2.4
PERCENT REDUCTION IN OOCYST PRODUCTION ([13]; 10 ppm): 36%
WEIGHT GAIN, PERCENT OF CONTROL ([13]; 10 ppm): 88% OF CONTROL
pKa (physchem): 6.6
